Source: US9896487B2, “Amyloidosis-inhibiting polypeptides and their use” (UNIVERSITY OF WASHINGTON THROUGH ITS CENTER FOR …, priority 2013, dated 2018)
Entries after “also recorded” stand apart in the source; their conditions may differ. Read-outs that look alike come from different tables or passages of the source. [ ]: non-standard residue; d: D form.

Experiments:
toxic oligomer = assay: Binding of toxic oligomer by peptide immobilized to agarose beads (Examples 2 and 3)
Method: Peptide designs were immobilized to the Pierce Amino Link resin following the manufacturer's instructions. Peptides were immobilized in a volume of 200 μL of coupling buffer (100 mM sodium phosphate, 150 mM sodium chloride, pH 7.2) and 2 μL cyanoborohydride solution (5 M sodium cyanoborohydride in 1 M NaOH) at a concentration of 358 μM overnight at 4° C. Any residual active sites were blocked with 400 μL quenching buffer (1 M tris hydrochloride, pH 7.4) and 4 μL cyanoborohydride solution for 4 hours at 25° C. Binding experiments were performed from 200 μL amyloid solution (5 μM Aβ or 20 μM TTR (monomer) diluted to the desired concentration in coupling buffer), which was allowed to bind to the peptide-bound agarose beads for 2 h at 25° C. The solution was then collected by centrifugation (flow through, FT). The beads were resuspended in 300 μL coupling buffer, vortexed to obtain an uniform slurry, and the solution was again collected by centrifugation (wash 1, W1). The wash step was performed an additional five times (W2-W6). One final wash step was performed but after resuspending the resin, the solution was allowed to sit for 5 minutes before centrifugation (W7). The resin was next resuspended in 100 μL 2M guanidine hydrochloride, incubated for 5 minutes at room temperature, then collected as before. This was performed twice (E1-E2). The resin was washed again with 300 μL coupling buffer (W8) followed by two elution steps with 6M guanidine hydrochloride (E3-E4). One final wash step was performed with 300 μL coupling buffer (W9). All collected eluents were analyzed by applying triplicate 1 μL spots to nitrocellulose, and then performing standard dot blot analysis as described by Kayed et al. (9) with an anti-TTR (sc-13098, Santa Cruz Biotechnology, Santa Cruz, Calif.) or anti-Aβ (ab39377; Abeam Inc, Cambridge, Mass.) primary antibody diluted 1:1.000 in 5% or 10% nonfat milk, respectively.
Three α-sheet designs are addressed in Example 1, but many more have been evaluated using these same assays and structural methods. FIG. 5 contains a list of other designed α-sheet peptides, both linear and cyclic (specifically peptides #3-5 and #8-9), as well as other control, non-α-sheet designs (peptides #17-18, 20). In addition, FIG. 5 contains ‘control’ designs aimed at reverse engineering the α1 design, which is presented in more detail in Example 3. […] Random primary sequences of amino acids are active in the polypeptides of the invention; these same primary sequences are not active if the polypeptide is provided in an entirely L-amino acid peptide or if the L/D amino acids are randomly distributed within the polypeptide such that they are not alternating (i.e. if they are not polypeptides according to the invention). […] They also all inhibit aggregation and/or bind the toxic oligomer. Some of the polypeptides are insoluble and the solution assay can't be performed, but they do bind the targeted toxic oligomer when they are immobilized to agarose beads to promote solubilization. • Thus, this provides further evidence that the primary amino acid sequence per se is not determining structure and activity, the L/D patterning is. However, the sequence modulates the activity and solubility properties. • Both cyclic and linear designs with different sequences form α-sheet polypeptides, inhibit aggregation, and bind the toxic oligomer. […] (See peptides #1 and #7.) Note, however, that the charges can modulate the level of activity. • Next, consider all 14 designed peptides with the L/D turn template, they are all active. Some have issues with solubility but they all form α-sheet and are active amyloid inhibitors in solution and/or binding of the toxic oligomer. These designs are both linear and cyclic peptides designed to be hairpins. The sequence identity relative to ldas90 (peptide #1) ranges from 9-91% across these 14 designs with an average of 43%. […]

transthyretin (TTR) = target: T1, transthyretin (TTR) (Homo sapiens, UniProt P02766); assay: TTR fibrillization assay (Congo red binding); format: biochemical; conditions: peptide without regard to TTR; prevents solution TTR assay
T1 construct: purchased Lee Biosolutions, St. Louis Mo; 496-11
Method: Aliqouts of transthyretin (TTR) (496-11; Lee Biosolutions, St. Louis Mo.) were made from a 1 mg/mL solution 20 mM ammonium carbonate, pH 8. Aliquots were lyophilized and stored at −18° C. Prior to use, TTR was dissolved to 80 μM (monomer) in acetate buffer (50 mM potassium acetate, 100 mM potassium chloride pH 4.5) and sonicated for 10 minutes. The stock solution was centrifuged before use. Peptide designs were added to stock TTR to a final TTR concentration of 40 μM (monomer) in acetate buffer (pH 4.5) in 500 μL microcentrifuge tubes, which were incubated at 37° C. Periodically, samples were collected from the TTR:peptide mixture by briefly centrifuging, and then carefully pipetting the solution up and down prior to withdrawing a 10 μL sample and diluting it in 190 μL of 10 μM Congo red in an individual well of a 96-well assay plate. Each measurement was performed in triplicate. Absorbance measurements were taken at 477 and 540 nm. Relative Congo red binding was determined using the method of Klunk et al. using the relationship: rCb=(Abs540/25,295)−(Abs477/46,306) (40). All datapoints were normalized to the value recorded for TTR alone pH 4.5 at 48 hrs.
The “control” designs were tested as general inhibitors against the Amyloid β 1-42 peptide (Aβ) (panel A), the islet amylin polypeptide (IAPP, or amylin, which is implicated in type 2 diabetes) (panel B), and transthyretin (TTR) (panel C) amyloidosis (FIG. 6). […] As described in Example 1, a Thioflavin T (ThT) fluorescence assay was used to monitor Aβ and IAPP aggregation. A Congo Red dye-binding assay was used to monitor TTR fibrillization. For inhibition against Aβ, peptides were co-incubated at 4-fold excess of Aβ at RT in neutral pH buffer containing ThT. Note that the results for α1 differ somewhat from what are included in Example 1 because the assay conditions were altered slightly to slow the process down to favor oligomerization of Aβ (rather than fibril elongation) by lowering the temperature to 25° C. […] For inhibition against IAPP, peptides were co-incubated at 8-fold excess of IAPP at 37° C. in neutral pH buffer containing 20 μM ThT. For inhibition against TTR, peptides were co-incubated at 10-fold excess of monomeric TTR.

[1] = test system: Aβ, IAPP and TTR amyloidosis / toxic oligomer; assay: Inhibitory activity summary: inhibition of aggregation and/or binding of toxic oligomer; format: biochemical; conditions: for inhibition of aggregation (FIG. 6): Aβ, IAPP, TTR panels; for inhibitor quality compared with ldas90: FIG. 6 / FIG. 7
Method: In addition, FIG. 5 contains ‘control’ designs aimed at reverse engineering the α1 design, which is presented in more detail in Example 3. […] These designs are both linear and cyclic peptides designed to be hairpins.
The “control” designs were tested as general inhibitors against the Amyloid β 1-42 peptide (Aβ) (panel A), the islet amylin polypeptide (IAPP, or amylin, which is implicated in type 2 diabetes) (panel B), and transthyretin (TTR) (panel C) amyloidosis (FIG. 6). […] As described in Example 1, a Thioflavin T (ThT) fluorescence assay was used to monitor Aβ and IAPP aggregation. A Congo Red dye-binding assay was used to monitor TTR fibrillization. For inhibition against Aβ, peptides were co-incubated at 4-fold excess of Aβ at RT in neutral pH buffer containing ThT. […] For inhibition against IAPP, peptides were co-incubated at 8-fold excess of IAPP at 37° C. in neutral pH buffer containing 20 μM ThT. For inhibition against TTR, peptides were co-incubated at 10-fold excess of monomeric TTR.
The data in FIG. 6 were normalized to ThT fluorescence of the negative (uninhibited) control (black squares). Inhibition traces are ordered vertically according to sequence identity to α1 (see Table 1). Sigmoidal fits to data are included. Controls are identical throughout a single panel, and traces for inhibition samples are colored while the uninhibited aggregation profiles are in black.

Substance | Congo red binding by the peptide itself (transthyretin (TTR)) | Inhibits Aggregation and/or binds oligomer? [1] | inhibition of aggregation (FIG. 6) [1] | binds toxic oligomer when immobilized (toxic oligomer) | further results
Ac-RGEaWmYiKNNLSETmMsNmWGR-NH2 [peptide #12] | bind Congo Red | yes | inhibits aggregation | – | binds toxic oligomer when immobilized (toxic oligomer; listed as Control 6): do bind toxic oligomer; binds toxic oligomer when immobilized (toxic oligomer; listed as Control6): binds the toxic oligomer; Inhibits Aggregation and/or binds oligomer? ([1]; listed as Control6): active
Ac-RGNwNeSkMNEYSGWmLmLtMGR-NH2 (Ac-RGN[dW]N[dE]S[dK]MNEYSGW[dM]L[dM]L[dT]MGR-NH2; SMILES CSCC[C@H](NC(=O)[C@@H](CCCCN)NC(=O)[C@H](CO)NC(=O)[C@@H](CCC(=O)O)NC(=O)[C@H](CC(N)=O)NC(=O)[C@@H](Cc1c[nH]c2ccccc12)NC(=O)[C@H](CC(N)=O)NC(=O)CNC(=O)[C@H](CCCNC(=N)N)NC(C)=O)C(=O)N[C@@H](CC(N)=O)C(=O)N[C@@H](CCC(=O)O)C(=O)N[C@@H](Cc1ccc(O)cc1)C(=O)N[C@@H](CO)C(=O)NCC(=O)N[C@@H](Cc1c[nH]c2ccccc12)C(=O)N[C@H](CCSC)C(=O)N[C@@H](CC(C)C)C(=O)N[C@H](CCSC)C(=O)N[C@@H](CC(C)C)C(=O)N[C@@H](C(=O)N[C@@H](CCSC)C(=O)NCC(=O)N[C@@H](CCCNC(=N)N)C(N)=O)[C@H](C)O) [peptide #6] | – | yes | good inhibitor | binds the toxic oligomer | inhibitor quality compared with ldas90 [1]: as good as ldas90 (peptide #1) with capped ends; also recorded: better than ldas90 with charged ends (peptide #7); inhibitor quality compared with ldas90 ([1]; listed as Control5): as active; Inhibits Aggregation and/or binds oligomer? ([1]; listed as Control5): active
Ac-AQQiEcItNVWDKEItMyFnVSE-NH2 (Ac-AQQ[dI]E[dC]L[dT]NVWDKEL[dT]M[dY]F[dN]VSE-NH2; not fully specified) [peptide #11] | bind Congo Red | yes | weak | do bind toxic oligomer | Inhibits Aggregation and/or binds oligomer? ([1]; listed as Control 3): active
RGEmNlSwMNEYSGWtMnLkMGR [peptide #7] | – | demonstrate activity | – | – | –
Ac-MNWESkGEwIRMRYGtmLSNGnM-NH2 (Ac-MNWES[dK]GE[dW]LRMRYG[dT][dM]LSNG[dN]M-NH2; SMILES CSCC[C@H](NC(=O)[C@@H](CC(N)=O)NC(=O)CNC(=O)[C@H](CC(N)=O)NC(=O)[C@H](CO)NC(=O)[C@H](CC(C)C)NC(=O)[C@@H](CCSC)NC(=O)[C@H](NC(=O)CNC(=O)[C@H](Cc1ccc(O)cc1)NC(=O)[C@H](CCCNC(=N)N)NC(=O)[C@H](CCSC)NC(=O)[C@H](CCCNC(=N)N)NC(=O)[C@H](CC(C)C)NC(=O)[C@@H](Cc1c[nH]c2ccccc12)NC(=O)[C@H](CCC(=O)O)NC(=O)CNC(=O)[C@@H](CCCCN)NC(=O)[C@H](CO)NC(=O)[C@H](CCC(=O)O)NC(=O)[C@H](Cc1c[nH]c2ccccc12)NC(=O)[C@H](CC(N)=O)NC(=O)[C@H](CCSC)NC(C)=O)[C@H](C)O)C(N)=O) [peptide #19] | bind Congo Red | no | – | does not | Inhibits Aggregation and/or binds oligomer? ([1]; listed as Control2): inactive
Ac-WRPwAiDgMNTBKQRkAsVyLQP-NH2 [peptide #13] | bind Congo Red | yes | – | do bind toxic oligomer | Inhibits Aggregation and/or binds oligomer? ([1]; listed as Control 4): active
Ac-RGEMNLSWMNEYSGWTMNLKMGR-NH2 (not fully specified (residues 4, 6, 8, 16, 18, 20); printed as Ac-RGEMNLSWMNEYSGWTMNLKMGR-NH2) [peptide #20, all L-amino acid version of ldas90] | – | no | – | – | Inhibits Aggregation and/or binds oligomer? ([1]; listed as llas90): inactive
